Earlier results in patent US20030180354A1 (DR. REDDY'S LABORATORIES LIMITED, priority 2001, published 2003).

Conditions: in man

CCOC(=O)C1=C(COCCN)NC(C)=C(C(=O)OC)C1c1ccccc1Cl (racemic) [Amlodipine, (±)-2-[(2-Aminoethoxy)methyl]-4-(2-chlorophenyl)-3-ethoxycarbonyl-5-methoxycarbonyl-6-methyl-1,4-dihydropyridine]
Oral bioavailability: 64%
